Experimental data taken from patent US20040101534A1 (priority 2002, published 2004).
“Also recorded” adds a separate entry of the source.

Tests used:
human PBL = conditions: cited from earlier work
[1] = system: T2 cells loaded with pp65495-503; conditions: mouse, in vivo; cited from earlier work
[2] = system: JA2.1 T cells infected with vaccinia virus expressing pp65; parameters: species or system HLA A2.1/K^b transgenic mice; conditions: mouse, in vivo, sc

Row | Sequence | CTL precursor memory response (human PBL) | CTL response directed at the pp65495-503 CTL epitope [1] | recognition of endogenously processed pp65 [2]
1 | NLVPMVATV [pp65495-503] | stimulates a CTL precursor (CTLp) memory response | robust CTL response | –
2 | VSTIVPYIGPALNIAAANLVPMVATV [Tet639V] | – | – | evident; also recorded: more prominent
